Experimental data as given in patent US7939563B2, “Remedy for hypertension” (Kao Corporation, priority 2001, dated 2011).

Key:
[1] = tested on: spontaneously hypertensive male rats (SHR); assay: Measurement of an antihypertensive effect: oral administration, systolic blood pressure of the caudal artery; format: in vivo, rat; conditions: 50 mg/Kg oral
Description: After each of 15 week-old, spontaneously hypertensive male rats (“SHR”) was accustomed to sphygmomanometric operation by preliminarily measuring its blood pressure for 7 successive days using a commercially available noninvasive sphygmomanometer for rats (manufactured by Softlon Co., Ltd.), the evaluation test was started. The rats were all bred under conditions (in a breeding room in a rat region) at a room temperature of 25±1° C., humidity of 55±10% RH and illumination for 12 hours (from 7:00 am to 7:00 pm).
In the test plot (Comparative Example), a solution of ferulic acid (50 mg/kg as a dose) in physiological saline was employed. In Test plot 2, Test plot 3, Test plot 4, Test plot 5 and Test plot 6, a solution of chlorogenic acid (50 mg/kg as a dosage) in physiological saline, oryzanol (50 mg/kg as a dosage), curcumin (50 mg/kg as a dosage), phenylethyl caffeate (50 mg/kg as a dosage) and rosmarinic acid (50 mg/kg as a dosage) were used, respectively. In each test plot, physiological saline was employed as a control. Each of the samples was orally administered.
SHRs were fasted overnight and divided into groups, each consisting of 5 rats. Systolic blood pressures of the caudal artery were measured prior to administration, and several times during 30 minutes to 24 hours after administration
The test results thus obtained were expressed by the mean value (%) and […] (SE) of the changing ratio (%) in systolic blood pressure.
A lowering ratio of the systolic blood pressure measured during 30 minutes to 24 hours each after administration relative to the systolic blood pressure prior to administration is shown in Table 1.

[2] = tested on: spontaneously hypertensive male rats (SHR); assay: Identification of an antihypertensive component: intravenous administration, systolic blood pressure of the carotid artery; format: in vivo, rat; conditions: anesthetized 15 week-old SHR, 5 μg mol/kg in physiological saline, intravenous via femoral vein catheter
Description: Its electrocardiograph was recorded by an electrocardiogram. A sample was injected to the femoral vein through a catheter. After the rats were accustomed sufficiently to the sphygmomanometric operation, the evaluation test was started. The rats were all bred under conditions (in a breeding room in a rat region) at a room temperature of 25±1° C., humidity of 55±10% RH and illumination for 12 hours (from 7:00 am to 7:00 pm). In the control plot, physiological saline was employed. […] Through a catheter, the sample was intravenously administered and while administration, systolic blood pressures of the carotid artery were measured with the passage of time.

[3] = Blood levels of chlorogenic acid, caffeic acid and ferulic acid after oral chlorogenic acid in SHR; format: in vivo, rat; parameters: unit not given here; conditions: 200 mg/kg chlorogenic acid oral once
Description: To the SHR, 200 mg/kg of chlorogenic acid was orally administered once.
SHRs were fasted overnight and then divided into groups, each consisting of 5 rats.

[4] = Blood level time course of ferulic acid after administration; format: in vivo
[5] = Blood levels after 6 weeks of a beverage mixture containing an extract of raw coffee beans, liquid chromatography; format: in vivo; conditions: human, plasma, oral; read-out: blood level 24 hours after administration of chlorogenic acid
Description: The blood levels of chlorogenic acid, caffeic acid and ferulic acid were measured using liquid chromatography.

[6] = time 0 (prior to administration)

Molecule	changing ratio in systolic blood pressure (mean) [1, 6] [%]	changing ratio in systolic blood pressure (mean) ([1]; time 6 after administration) [%]	changing ratio in systolic blood pressure (mean) ([1]; time 12 after administration) [%]	changing ratio in systolic blood pressure (mean) ([1]; time 24 after administration) [%]	fluctuation in systolic blood pressure of the carotid artery [2]	blood level after the administration of chlorogenic acid [3, 6]	blood level after the administration of chlorogenic acid ([3]; time 3)	blood level after the administration of chlorogenic acid ([3]; time 6)	blood level after the administration of chlorogenic acid ([3]; time 9)	blood level after the administration of chlorogenic acid ([3]; time 12)	blood level after the administration of chlorogenic acid ([3]; time 24)	also measured
COc1cc(/C=C/C(=O)CC(=O)/C=C/c2ccc(O)c(OC)c2)ccc1O [curcumin]	0	−15.2	−3.5	−5.3	–	–	–	–	–	–	–	–
O=C(O)[C@]1(O)C[C@@H](O)[C@@H](O)[C@H](O)C1 [quinic acid]	–	–	–	–	Fluctuations in the blood pressure was not recognized	–	–	–	–	–	–	–
O=C(/C=C/c1ccc(O)c(O)c1)O[C@@H]1C[C@](O)(C(=O)O)C[C@@H](O)[C@H]1O [5-chlorogenic acid, 5-caffeoylquinic acid]	–	–	–	–	–	0	0	0	0	0	0	–
COc1cc(/C=C/C(=O)O)ccc1O [ferulic acid]	0	−3.2	–	–	lowering in the blood pressure was recognized	0	0.074	0.154	0.174	0.145	0	time after which metabolism and excretion are completed [4]: about 4 hours; time at which the blood level reaches the maximum [4]: about 2 hours; concentration at 24 h [5]: 104 ng/mL; changing ratio in systolic blood pressure (mean) ([1]; time 0.5 after administration): −9.5%; changing ratio in systolic blood pressure (mean) ([1]; time 1 after administration): −10.3%; changing ratio in systolic blood pressure (mean) ([1]; time 2 after administration): −6.8%; changing ratio in systolic blood pressure (mean) ([1]; time 4 after administration): −7.9%
O=C(/C=C/c1ccc(O)c(O)c1)O[C@H](Cc1ccc(O)c(O)c1)C(=O)O [rosemaric acid, rosmarinic acid]	0	−6.4	0.9	2.2	–	–	–	–	–	–	–	–
O=C(O)/C=C/c1ccc(O)c(O)c1 [caffeic acid]	–	–	–	–	Fluctuations in the blood pressure was not recognized	0	0.07	0.179	0.166	0.05	0	concentration at 24 h [5]: 95.4 ng/mL
oryzanol	0	–	–	–	–	–	–	–	–	–	–	changing ratio in systolic blood pressure (mean) ([1]; time 1 after administration): −15.2%; changing ratio in systolic blood pressure (mean) ([1]; time 2 after administration): −12.8%; changing ratio in systolic blood pressure (mean) ([1]; time 4 after administration): −13.8%
O=C(/C=C/c1ccc(O)c(O)c1)O[C@H]1[C@H](O)C[C@](O)(C(=O)O)C[C@H]1O [4-chlorogenic acid, 4-caffeoylquinic acid]	0	−8.5	−9.1	−11.0	–	–	–	–	–	–	–	–
O=C(/C=C/c1ccc(O)c(O)c1)OCCc1ccccc1 [phenylethyl caffeic acid, phenylethyl caffeate]	0	−13.7	−1.3	−0.7	–	–	–	–	–	–	–	–
